The values below come from patent US7829283B2, “Methylation of estrogen receptor alpha and uses thereof” (John Wayne Cancer Institute, priority 2006, dated 2010).

Assay [1] concerns ER-α mRNA expression in MCA melanoma cell line. Nature of the assay: ER-α mRNA re-expression by RT-PCR in melanoma cell lines after 5-Aza and TSA treatment. It counts as cell-based, human. Particulars: data not shown. As for the experimental part:
To confirm down-regulation of ER-α expression by hypermethylation of the ER-α promoter region, cell lines were treated with the DNA-demethylating agent, 5-Aza, and the HDAC inhibitor, TSA. In combination with 5-Aza treatment, TSA can up-regulate the mRNA expression of genes silenced due to hypermethylation (26, 27). The MCF-7 cell line was used as an ER-α positive control and the MCA cell line was used as an ER-α negative control. Cell lines were maintained in RPMI 1640 medium supplemented with heat-inactivated 10% fetal bovine serum (FBS), penicillin G, and streptomycin (100 U/ml). Cells were treated with 1000 nM TSA for 24 hr (Wako Biochemicals, Osaka, Japan) and 1000 nM 5-Aza for five days (Sigma Chemical Co., St Louis, Mo.). After treatment with 5-Aza and TSA, melanoma cells were washed with phosphate buffered saline (PBS) and harvested with 0.25% trypsin-0.53 mM EDTA (Gibco, Auckland, N.J.). The mRNA expression level of ER-α was assessed by RT-PCR before and after 5-Aza and TSA treatment. […] The RNA was quantified and assessed for purity using ultraviolet spectrophotometry and the RIBOGreen detection assay (Molecular Probes, Eugene, Oreg.). The expression of mRNA for GAPDH, an internal reference housekeeping gene, was assessed by RT-PCR on all RNA samples to verify the integrity of RNA and to indicate equal loading of PCR products for gel electrophoresis. […]

The next assay has as its system melanoma cells. Particulars: in vitro experiments; cited from earlier work.
Another assay relates to advanced melanoma. Particulars: chemotherapy and BC regimens; cited from earlier work.

Regarding `CC(/C=C/C(=O)NO)=C\[C@@H](C)C(=O)c1ccc(N(C)C)cc1` [TSA, trichostatin A], the “ER-α mRNA expression, single agent versus need for the second agent” value in assay [1] is “necessary to significantly increase expression above pretreatment levels”. On to `CC/C(=C(\c1ccccc1)c1ccc(OCCN(C)C)cc1)c1ccccc1` [tamoxifen], for which the “growth inhibition of melanoma cells in vitro” value in the assay with melanoma cells is “effective growth inhibitor”. The “overall survival in advanced melanoma” value with advanced melanoma is listed as “has not been shown to significantly improve overall survival”. Regarding `Nc1ncn([C@H]2C[C@H](O)[C@@H](CO)O2)c(=O)n1` [5-Aza, 5-aza-2-deoxycytidine], the “ER-α mRNA expression, single agent versus need for the second agent” value in assay [1] is “did not significantly increase”.
